Molecules are shown by their SMILES. Numbers after ± are expanded uncertainties.

The source of these data is the NIST ThermoML archive (doi:10.1016/j.tca.2010.09.004).

For the data set the following is noted: 101.33 kPa, Liquid; for speed of sound: Sing-around technique in a fixed-path interferometer; for mass density: Vibrating tube method.

The term speed of sound denotes how fast a sound wave travels through the sample. A word on the mass density: it is the mass of a sample divided by its volume. `CCC(C)=O` [butanone]: the speed of sound by setting is: (293.15 K) 1212.3 ± 1 m/s; (298.15 K) 1191 ± 1 m/s; (303.15 K) 1170.8 ± 1 m/s. The mass density (293.15 K) was determined as 805.351 ± 0.19 kg/m3, the mass density (298.15 K) was 800.077 ± 0.19 kg/m3 and the mass density (303.15 K) is recorded as 794.779 ± 0.19 kg/m3.

Regarding `CCCCNCCCC` [dibutylamine], the speed of sound was 1261.2 ± 1 m/s (293.15 K), 1241.3 ± 1 m/s (298.15 K) and 1222.5 ± 1 m/s (303.15 K). For the same molecule, the mass density reads like this: (293.15 K) 759.571 ± 0.2 kg/m3; (298.15 K) 755.457 ± 0.2 kg/m3; (303.15 K) 751.329 ± 0.21 kg/m3.

As for `CCCNCCC` [dipropylamine], the speed of sound is, setting by setting: (293.15 K) 1209.2 ± 1.4 m/s; (298.15 K) 1187.7 ± 1.3 m/s; (303.15 K) 1167.1 ± 1.3 m/s. For the same molecule, the mass density is, setting by setting: (293.15 K) 738.188 ± 0.32 kg/m3; (298.15 K) 733.683 ± 0.32 kg/m3; (303.15 K) 729.087 ± 0.32 kg/m3.

Consider `CCN(CC)CC` [triethylamine], for which the speed of sound was determined as 1132.8 ± 1 m/s (293.15 K), 1111.1 ± 1 m/s (298.15 K) and 1090.7 ± 1 m/s (303.15 K). Moreover, the mass density is, setting by setting: (293.15 K) 727.515 ± 0.22 kg/m3; (298.15 K) 722.822 ± 0.22 kg/m3; (303.15 K) 718.201 ± 0.22 kg/m3.
